Legend:
[1] = test system: patients with moderate to severe intensity migraine; test: large open-label Phase 2 trial of rimegepant; format: in vivo, human
Description: The goal of our strategy is to deliver one medication to address patients' needs for treating their migraines.

[2] = test system: patients with episodic and chronic migraine; test: BHV3000-305 Phase 2/3 randomized, double-blind, placebo-controlled study of rimegepant in migraine prevention (NCT03732638): efficacy; format: in vivo, human
Protocol: Clinical Trial—BHV3000-305: A Phase ⅔, Randomized, Double-blind, Placebo-controlled Study to Evaluate the Efficacy and Safety of Rimegepant in Migraine Prevention (ClinicalTrials.gov Identifier: NCT03732638).
A phase ⅔ clinical study was conducted with 1629 participants, as follows.
The purpose of this is study is to compare the efficacy of BHV-3000 (rimegepant) to placebo as a preventive treatment for migraine, as measured by the reduction in the number of migraine days per month.
Study Design • Study Type: Interventional (Clinical Trial) • Actual Enrollment: 1629 participants • Allocation: Randomized • Intervention Model: Parallel Assignment • Masking: Triple (Participant, Care Provider, Investigator) • Primary Purpose: Prevention • Official Title: A Phase ⅔, Randomized, Double-blind, Placebo-controlled Study to Evaluate the Efficacy and Safety of Rimegepant in Migraine Prevention • Actual Study Start Date: Nov. 14, 2018 • Actual Primary Completion Date: Dec. 10, 2019 • Estimated Study Completion Jan. 30, 2021 • Date:
Primary Outcome Measures: • 1. Change from baseline in mean number of migraine days per month [Time Frame: Mean number of migraine days per month as assessed over 3 months (12 weeks)] Change from baseline in mean number of migraine days per month as measured over the 12-week double-blind phase of the study.
Secondary Outcome Measures: • 1. Achievement of at least a 50% reduction from baseline in mean number of moderate to severe monthly migraine days. [Time Frame: baseline to end of Week 12] Achievement of at least a 50% reduction from baseline in mean number of moderate to severe monthly migraine days over course of the double-blind treatment phase. • 2. The mean number of rescue medication days per month. [Time Frame: baseline to end of week 12 as measure per month] The mean number of rescue medication days per month over the course of the double-blind, treatment phase. Rescue medications include the rescue medications defined in this protocol. • 3. Adverse events. [Time Frame: baseline to end of Week 12] Adverse events that occur in at least 5% of treated subjects; the frequency of unique subjects with serious adverse events, adverse events leading to discontinuation and clinically significant laboratory abnormalities, as reported on case report forms. • 4. The frequency of AST or ALT elevations. [Time Frame: baseline to end of Week 12] The frequency of AST or ALT elevations >3×ULN, concurrently with bilirubin elevations >2× ULN, will be assessed by tabulating the number of unique subjects with this pairing of events. • 5. The frequency of hepatic-related adverse events and hepatic-related treatment. [Time Frame: baseline to end of Week 12] The frequency of hepatic-related adverse events and hepatic-related treatment discontinuations will be tabulated from case report forms and will be based on unique subjects reporting such events. • 6. The mean change from baseline in the MSQ role function [Time Frame: baseline to end of Week 12] The mean change from baseline in the MSQ role function—restrictive domain score at Week 12 of the double-blind treatment phase. • 7. The mean change from baseline in the MIDAS total score. [Time Frame: baseline to end of Week 12]
The mean change from baseline in the MIDAS total score at Week 12 of the double-blind treatment phase.
This pivotal study enrolled patients with both episodic and chronic migraine. The study evaluated the efficacy and safety of rimegepant 75 mg (n=370) dosed every other day for the preventive treatment of migraine in patients versus placebo (n=371) who had migraine for at least one year and 4 to 18 moderate to severe migraine attacks per month over three months prior to enrollment. During the one-month observation period, patients experienced on average 10.7 migraine days per month, with 7.4 migraine days of moderate to severe migraine during the same period.

[3] = BHV3000-305 study: adverse events and liver safety on double-blind treatment
[4] = 370 patients, rimegepant 75 mg every other day
[5] = Severity: Mild, Treated Subjects N = 370
[6] = Severity: Moderate or Severe, Treated Subjects N = 370
[7] = Severity: Moderate, Treated Subjects N = 370
[8] = Severity: Total, Treated Subjects N = 370

Compound: N[C@@H]1c2cccnc2[C@H](OC(=O)N2CCC(n3c(=O)[nH]c4ncccc43)CC2)CC[C@H]1c1cccc(F)c1F [Rimegepant, [(5S,6S,9R)-5-amino-6-(2,3-difluorophenyl)-6,7,8,9-tetrahydro-5H-cyclohepta[b]pyridin-9-yl] 4-(2-oxo-3H-imidazo[4,5-b]pyridin-1-yl)piperidine-1-carboxylate]
- reduction in migraine days per month [1]: ≤ 5.3 days
- MSQoL Restrictive Role Function Domain Score Change From Baseline at Week 12, Difference (Rimegepant − Placebo) ([2]; 95% CI (0.23, 6.70), P-value 0.0358): 3.5
- >=50% Reduction in Moderate or Severe Migraine Days per Month in Last Month, Stratified Risk Difference (Rimegepant − Placebo) ([2]; 95% CI (−0.6, 14.1), P-value 0.0734): 6.7
- Rescue Medication Days per Month in Last Month, Difference (Rimegepant − Placebo) ([2]; 95% CI (−0.80, 0.31), P-value 0.3868): −0.2 Days per Month
- Change From OP in Mean Number of Total Migraine Days per Month Overall, Difference (Rimegepant − Placebo) ([2]; 95% CI (−1.23, −0.17), P-value 0.0094): −0.7 Days per Month
- Change From OP in Mean Number of Total Migraine Days per Month in Last Month, Difference (Rimegepant − Placebo) ([2]; 95% CI (−1.42, −0.14), P-value 0.0176, significant in hierarchical testing): −0.8 Days per Month
- Change From OP in Mean Number of Total Migraine Days per Month In First Month, Difference (Rimegepant − Placebo) ([2]; 95% CI (−1.49, −0.36), P-value 0.0013): −0.9 Days per Month
- MIDAS Total Score Change From Baseline at Week 12, Difference (Rimegepant − Placebo) ([2]; 95% CI (−4.74, 4.51), P-value 0.9616): −0.1
- >=50% Reduction From OP in Mean Number of Moderate or Severe Migraine Days per Month in Last Month, Response Rate (n/N) ([2]; evaluable mITT): 167/348
- Primary Endpoint: Change From OP in Mean Number of Total Migraine Days per Month in Last Month, Least-squares mean ([2]; evaluable mITT N = 348, 75 mg every other day, 95% CI (−4.95, −3.97)): −4.5 Days per Month
- Rescue Medication Days per Month in Last Month, Least-squares mean ([2]; evaluable mITT N = 348, 95% CI (3.29, 4.15)): 3.7 Days per Month
- Change From OP in Mean Number of Total Migraine Days per Month In First Month, Least-squares mean ([2]; evaluable mITT N = 348, 95% CI (−3.04, −2.17)): −2.6 Days per Month
- Change From OP in Mean Number of Total Migraine Days per Month Overall, Least-squares mean ([2]; evaluable mITT N = 348, 95% CI (−3.94, −3.12)): −3.5 Days per Month
- MSQoL Restrictive Role Function Domain Score Change From Baseline at Week 12, Least-squares mean ([2]; n 269, 95% CI (15.54, 20.56)): 18.0
- MIDAS Total Score Change From Baseline at Week 12, Least-squares mean ([2]; n 269, 95% CI (−15.41, −8.21)): −11.8
- reduction in mean number of migraine days as compared to placebo, (4.9-3.7)/3.7*100 ([2]; participants not taking concomitant preventive treatment): 32%
- reduction from baseline in monthly migraine days ([2]; rimegepant 75 mg every other day, vs 3.7 day in placebo group, p=0.0176): 4.5 days
- reduction from baseline in monthly migraine days, participants not taking concomitant preventive treatment ([2]; rimegepant group n=273, vs 3.7 day in placebo group (n=269)): 4.9 days
- >=50% Reduction From OP in Mean Number of Moderate or Severe Migraine Days per Month in Last Month, Stratified Risk ([2]; stratified by prophylactic migraine medication use, 95% CI (42.7, 53.2)): 48.0
- share of group with at least a 50% reduction from baseline in the mean number of moderate to severe migraine days per month ([2]; vs 41% in the placebo group): 48%
- cases of ALT or AST >3×ULN and bilirubin >2×ULN [3, 4]: no cases
- independent liver monitoring panel assessment of ALT/AST elevations [3, 4]: did not determine any ALT/AST elevations to be in the categories of probably or definitely related to study drug
- safety profile [3, 4]: consistent with prior clinical trial experience
- Enterobiasis [3, 5]: 0 n
- Folliculitis [3, 5]: 0 n
- Oral candidiasis [3, 5]: 0 n
- Orchitis [3, 5]: 0 n
- Otitis media [3, 5]: 0 n
- Acute sinusitis [3, 6]: 0 n
- Appendicitis [3, 6]: 0 n
- Bacterial vaginosis [3, 6]: 0 n
- Herpes zoster [3, 6]: 0 n
- Pharyngitis streptococcal [3, 6]: 0 n
- Pneumonia [3, 6]: 0 n
- Pyelonephritis [3, 6]: 0 n
- Sepsis [3, 6]: 0 n
- Acute sinusitis [3, 7]: 0 n
- Appendicitis [3, 7]: 0 n
- Bacterial vaginosis [3, 7]: 0 n
- Herpes zoster [3, 7]: 0 n
- Pharyngitis streptococcal [3, 7]: 0 n
- Sepsis [3, 7]: 0 n
- Acute sinusitis [3, 8]: 0 n
- Appendicitis [3, 8]: 0 n
- Enterobiasis [3, 8]: 0 n
- Folliculitis [3, 8]: 0 n
- Oral candidiasis [3, 8]: 0 n
- Orchitis [3, 8]: 0 n
- Otitis media [3, 8]: 0 n
- Pelvic inflammatory disease [3, 8]: 0 n
- Pertussis [3, 8]: 0 n
- Pharyngitis streptococcal [3, 8]: 0 n
- Pneumonia [3, 8]: 0 n
- Pyelonephritis [3, 8]: 0 n
- Sepsis [3, 8]: 0 n
- Tooth infection [3, 8]: 0 n

— patent US20230285380A1, “DUAL TREATMENT OF MIGRAINE” (priority 2021, published 2023)
